From US20230391772A1, “METHODS AND COMPOSITIONS FOR TARGETED PROTEIN DEGRADATION” (Ranok Therapeutics (Hangzhou) Co. Ltd., priority 2020, published 2023)

How the values were obtained:
[1] = molecular target: T1, HSP90a protein (Homo sapiens, UniProt P07900); assay: HSP90α-binding fluorescent polarization (FP) assay, BODIPY-labeled RNK04010 probe; details: FP competition with RNK04010 (BODIPY-labeled), 5 nM, 300 min at 25° C.
T1 construct: purchased BPS Bioscience 50298
Summary of the method: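 Compound dilutions (20 μM to 5.2 nM, 2.5-fold) are combined with 5 nM final labeled probe, and HSP90a N-terminal protein is added last. Plates are shaken briefly and held at 25° C for 120 min (FITC-geldanamycin) or 300 min (BODIPY-RNK04010), then FP is measured.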

[2] = system: MIA PaCa-2 human pancreatic carcinoma; assay: MIA PaCa-2 CCK-8 proliferation assay; format: cell-based; details: Homo sapiens, MIA PaCa-2, 72 h, MIA PaCa-2 cells
Summary of the method: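 Percent inhibition derived from CCK-8 optical signal, normalised between DMSO-only cells (0%) and cell-free medium containing DMSO as background. Cells: MIA PaCa-2 carrying 2 KRAS(G12C) copies; NCI-H358, NCI-H23 carrying 1 copy apiece. Concentrations spanned 1.02 nM–20 μM in threefold increments.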

[3] = molecular target: KRAS(G12C) (Homo sapiens, UniProt P01116, G12C); assay: KRAS(G12C)/SOS1 homogeneous time-resolved fluorescence (HTRF) assay; parameters: purchased Cisbio 63ADK000CB16PEG; details: absence of GTP, 4° C. for 3 hr, read-out: KRAS (G12C) binding
KRAS(G12C), sequence (P01116 1-188 isoform P01116-2 G12C): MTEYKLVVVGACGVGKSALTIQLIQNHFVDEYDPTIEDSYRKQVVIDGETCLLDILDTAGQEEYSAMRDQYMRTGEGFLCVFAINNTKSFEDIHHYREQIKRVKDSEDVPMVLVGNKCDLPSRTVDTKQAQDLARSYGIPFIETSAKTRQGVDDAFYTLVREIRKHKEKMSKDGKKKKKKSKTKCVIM
Summary of the method: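 Three-hour incubation at 4 °C of 3-fold compound dilutions (lowest 1.02 nM) with KRAS(G12C), SOS1 and detection reagents, GTP absent. Disruption of the KRAS(G12C)/SOS1 complex detected by time-resolved fluorescence.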

| SMILES | IC50 [1] [nM] | EC50 [2] [nM] | IC50 [3] [nM] |
| --- | --- | --- | --- |
| C=CC(=O)N1CCN(c2nc(OC[C@@H]3C[C@H](NC(=O)C4CCN(C(=O)c5ccc(-n6c(O)nnc6-c6cc(C(C)C)c(O)cc6O)cc5)CC4)CN3C)nc3c2CCN(c2cccc4cccc(Cl)c24)C3)C[C@@H]1CC#N [Compound 315, N-[(3S,5S)-5-({[7-(8-chloronaphthalen-1-yl)-4-[(3S)-3-(cyanomethyl)-4-(prop-2-enoyl)piperazin-1-yl]-5H,6H,8H-pyrido[3,4-d]pyrimidin-2-yl]oxy}methyl)-1-methylpyrrolidin-3-yl]-1-{4-[3-(2,4-dihydroxy-5-isopropylphenyl)-5-hydroxy-1,2,4-triazol-4-yl]benzoyl}piperidine-4-carboxamide] | < 100 | > 1000 | < 100 |
| C=CC(=O)N1CCN(c2nc(OC[C@@H]3C[C@@H](OCC(=O)N4CCC(CN5CCN(Cc6ccc(-n7c(O)nnc7-c7cc(C(C)C)c(O)cc7O)cc6)CC5)CC4)CN3C)nc3c2CCN(c2cccc4cccc(Cl)c24)C3)C[C@@H]1CC#N [Compound 301, 2-((S)-1-acryloyl-4-(7-(8-chloronaphthalen-1-yl)-2-(((2S,4R)-4-(2-(4-((4-(4-(3-(2,4-dihydroxy-5-isopropylphenyl)-5-hydroxy-4H-1,2,4-triazol-4-yl)benzyl)piperazin-1-yl)methyl)piperidin-1-yl)-2-oxoethoxy)-1-methylpyrrolidin-2-yl)methoxy)-5,6,7,8-tetrahydropyrido[3,4-d]pyrimidin-4-yl)piperazin-2-yl)acetonitrile] | < 100 | 100 to 1000 | 100 to 1000 |
| C=CC(=O)N1CCN(c2nc(OC[C@@H]3CCN3C(=O)C3CCN(Cc4ccc(-n5c(O)nnc5-c5cc(C(C)C)c(O)cc5O)cc4)CC3)nc3c2CCN(c2cccc4cccc(Cl)c24)C3)C[C@@H]1CC#N [Compound 189, 2-((S)-1-acryloyl-4-(7-(8-chloronaphthalen-1-yl)-2-(((S)-1-(1-(4-(3-(2,4-dihydroxy-5-isopropylphenyl)-5-hydroxy-4H-1,2,4-triazol-4-yl)benzyl)piperidine-4-carbonyl)azetidin-2-yl)methoxy)-5,6,7,8-tetrahydropyrido[3,4-d]pyrimidin-4-yl)piperazin-2-yl)acetonitrile, trifluoroacetic acid] | < 100 | > 1000 | > 1000 |
| C=CC(=O)N1CCN(c2nc(OC[C@@H]3C[C@H](N(C)CCC(=O)N4CCN(Cc5ccc(-n6c(C(=O)NCC(F)(F)F)nnc6-c6cc(C(C)C)c(O)cc6O)cc5)CC4)CN3C)nc3c2CCN(c2cccc4cccc(Cl)c24)C3)C[C@@H]1CC#N [Compound 337, 4-(4-{[4-(3-{[(3S,5S)-5-({[7-(8-chloronaphthalen-1-yl)-4-[(3S)-3-(cyanomethyl)-4-(prop-2-enoyl)piperazin-1-yl]-5H,6H,8H-pyrido[3,4-d]pyrimidin-2-yl]oxy}methyl)-1-methylpyrrolidin-3-yl](methyl)amino}propanoyl)piperazin-1-yl]methyl}phen-yl)-5-(2,4-dihydroxy-5-isopropylphenyl)-N-(2,2,2-trifluoroethyl)-1,2,4-triazole-3-carboxamide] | < 100 | 100 to 1000 | 100 to 1000 |
| C=CC(=O)N1CCN(c2nc(OC[C@@H]3C[C@H](NC(=O)C4CCN(C(=O)C5CCN(Cc6ccc(-n7c(O)nnc7-c7cc(C)c(O)cc7O)cc6)CC5)CC4)CN3C)nc3c2CCN(c2cccc4cccc(Cl)c24)C3)C[C@@H]1CC#N [Compound 312, N-[(3S,5S)-5-({[7-(8-chloronaphthalen-1-yl)-4-[(3S)-3-(cyanomethyl)-4-(prop-2-e-noyl)piperazin-1-yl]-5H,6H,8H-pyrido[3,4-d]pyrimidin-2-yl]oxy}methyl)-1-meth-ylpyrrolidin-3-yl]-1-[1-({4-[3-(2,4-dihydroxy-5-methylphenyl)-5-hydroxy-1,2,4-triazol-4-yl]phenyl}methyl)piperidine-4-carbonyl]piperidine-4-carboxamide] | < 100 | > 1000 | < 100 |
| C=CC(=O)N1CCN(c2nc(OC[C@@H]3CN(C(=O)C4CCN(Cc5ccc(-n6c(O)nnc6-c6cc(C)c(O)cc6O)cc5)CC4)CCN3C)nc3c2CCN(c2cccc4cccc(Cl)c24)C3)C[C@@H]1CC#N [Compound 203, 2-((S)-1-acryloyl-4-(7-(8-chloronaphthalen-1-yl)-2-(((S)-4-(1-(4-(3-(2,4-dihydroxy-5-methylphenyl)-5-hydroxy-4H-1,2,4-triazol-4-yl)benzyl)piperidine-4-carbonyl)-1-methylpiperazin-2-yl)methoxy)-5,6,7,8-tetrahydropyrido[3,4-d]pyrimidin-4-yl)piperazin-2-yl)acetonitrile, trifluoroacetic acid] | < 100 | > 1000 | 100 to 1000 |
| C=CC(=O)N1CCN(c2nc(OC[C@@H]3C[C@H](N4CCC(C(=O)N5CCN(Cc6ccc(-n7c(C(=O)NCCN8CCN(S(C)(=O)=O)CC8)nnc7-c7cc(C(C)C)c(O)cc7O)cc6)CC5)CC4)CN3C)nc3c2CCN(c2cccc4cccc(Cl)c24)C3)C[C@@H]1CC#N [Compound 327, 4-{4-[(4-{1-[(3S,5S)-5-({[7-(8-chloronaphthalen-1-yl)-4-[(3S)-3-(cyanomethyl)-4-(prop-2-enoyl)piperazin-1-yl]-5H,6H,8H-pyrido[3,4-d]pyrimidin-2-yl]oxy}methyl)-1-methylpyrrolidin-3-yl]piperidine-4-carbonyl}piperazin-1-yl)methyl]phenyl}-5-(2,4-dihydroxy-5-isopropylphenyl)-N-[2-(4-methanesulfonylpiperazin-1-yl)ethyl]-1,2,4-triazole-3-carboxamide] | < 100 | 100 to 1000 | < 100 |
| CCC(=O)N1CCN(c2nc(OCCN3CCN(C(=O)C4CCN(Cc5ccc(-n6c(C(=O)NCC(F)(F)F)nnc6-c6cc(C(C)C)c(O)cc6O)cc5)CC4)CC3)nc3c2CCN(c2cccc4cccc(Cl)c24)C3)C[C@@H]1CC#N [Compound 208, (S)-4-(4-((4-(4-(2-((7-(8-chloronaphthalen-1-yl)-4-(3-(cyanomethyl)-4-propionylpiperazin-1-yl)-5,6,7,8-tetrahydropyrido[3,4-d]pyrimidin-2-yl)oxy)ethyl)piperazine-1-carbonyl)piperidin-1-yl)methyl)phenyl)-5-(2,4-dihydroxy-5-isopropylphenyl)-N-(2,2,2-trifluoroethyl)-4H-1,2,4-triazole-3-carboxamide] | < 100 | < 100 | > 1000 |
| C=CC(=O)N1CCN(c2nc(OC[C@@H]3C[C@@H](NC(=O)c4ccc(-n5c(O)nnc5-c5cc(C(C)C)c(O)cc5O)cc4)CN3C)nc3c2CCN(c2cccc4cccc(Cl)c24)C3)C[C@@H]1CC#N [Compound 196, N-((3R,5S)-5-(((4-((S)-4-acryloyl-3-(cyanomethyl)piperazin-1-yl)-7-(8-chloronaphthalen-1-yl)-5,6,7,8-tetrahydropyrido[3,4-d]pyrimidin-2-yl)oxy)methyl)-1-methylpyrrolidin-3-yl)-4-(3-(2,4-dihydroxy-5-isopropylphenyl)-5-hydroxy-4H-1,2,4-triazol-4-yl)benzamide, trifluoroacetic acid] | < 100 | > 1000 | 100 to 1000 |
| C=CC(=O)N1CCN(c2nc(OC[C@@H]3C[C@H](N4CCC(C(=O)NCCc5ccc(CN6CCC(Cc7ccc(-n8c(C(=O)NCC(F)(F)F)nnc8-c8cc(C(C)C)c(O)cc8O)cc7)CC6)cc5)CC4)CN3C)nc3c2CCN(c2cccc4cccc(Cl)c24)C3)C[C@@H]1CC#N [Compound 330, 1-[(3S,5S)-5-({[7-(8-chloronaphthalen-1-yl)-4-[(3S)-3-(cyanomethyl)-4-(prop-2-enoyl)piperazin-1-yl]-5H,6H,8H-pyrido[3,4-d]pyrimidin-2-yl]oxy}methyl)-1-methylpyrrolidin-3-yl]-N-[2-(4-{[4-({4-[3-(2,4-dihydroxy-5-isopropylphenyl)-5-[(2,2,2-trifluoroethyl)carbamoyl]-1,2,4-triazol-4-yl]phenyl}methyl)piperidin-1-yl]methyl}phenyl)ethyl]piperidine-4-carboxamide] | < 100 | 100 to 1000 | 100 to 1000 |
| C=CC(=O)N1CCN(c2nc(OC[C@@H]3C[C@H](N4CCC5(CCN(C(=O)C6CCN(Cc7ccc(-n8c(C(=O)NCC(F)(F)F)nnc8-c8cc(C(C)C)c(O)cc8O)cc7)CC6)CC5)CC4)CN3C)nc3c2CCN(c2cccc4cccc(Cl)c24)C3)C[C@@H]1CC#N [Compound 311, 4-{4-[(4-{9-[(3S,5S)-5-({[7-(8-chloronaphthalen-1-yl)-4-[(3S)-3-(cyanomethyl)-4-(prop-2-enoyl)piperazin-1-yl]-5H,6H,8H-pyrido[3,4-d]pyrimidin-2-yl]oxy}methyl)-1-methylpyrrolidin-3-yl]-3,9-diazaspiro[5.5]undecane-3-carbonyl}piperidin-1-yl)methyl]phenyl}-5-(2,4-dihydroxy-5-isopropylphenyl)-N-(2,2,2-trifluoroethyl)-1,2,4-triazole-3-carboxamide] | < 100 | < 100 | < 100 |
